{"source": "paper PMC6102213", "about": "“Repurposing Thioridazine (TDZ) as an anti-inflammatory agent” (Scientific Reports, 2018)", "target": "T1, IKKβ (Homo sapiens, UniProt O14920)", "T1 construct": "gene IKBKB", "T1 sequence (O14920 1-756)": "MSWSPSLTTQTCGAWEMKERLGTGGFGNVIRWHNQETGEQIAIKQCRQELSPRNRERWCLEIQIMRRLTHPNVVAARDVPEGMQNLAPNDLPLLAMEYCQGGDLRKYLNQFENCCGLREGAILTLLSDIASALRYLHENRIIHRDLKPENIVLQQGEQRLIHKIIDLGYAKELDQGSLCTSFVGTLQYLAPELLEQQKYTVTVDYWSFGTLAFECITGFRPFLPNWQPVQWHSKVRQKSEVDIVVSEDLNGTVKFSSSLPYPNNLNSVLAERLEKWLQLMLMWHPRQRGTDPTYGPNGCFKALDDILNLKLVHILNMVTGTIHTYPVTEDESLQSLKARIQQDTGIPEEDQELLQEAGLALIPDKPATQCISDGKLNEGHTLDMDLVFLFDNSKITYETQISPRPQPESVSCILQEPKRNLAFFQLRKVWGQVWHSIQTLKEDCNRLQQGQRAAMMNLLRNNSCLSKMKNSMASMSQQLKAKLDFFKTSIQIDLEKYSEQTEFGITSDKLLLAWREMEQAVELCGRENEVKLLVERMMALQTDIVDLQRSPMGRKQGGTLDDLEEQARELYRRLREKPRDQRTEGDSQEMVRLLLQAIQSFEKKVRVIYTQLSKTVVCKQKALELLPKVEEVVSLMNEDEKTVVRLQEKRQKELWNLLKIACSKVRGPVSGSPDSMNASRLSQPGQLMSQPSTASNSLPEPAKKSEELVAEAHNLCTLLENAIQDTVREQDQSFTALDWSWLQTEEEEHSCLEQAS", "test": "ADP-Glo IKKβ kinase assay (Promega), […] ng IKKβ, IKKtide, […] ATP", "assay_type": "biochemical", "data": [{"smiles": "CSc1ccc2c(c1)N(CCC1CCCCN1C)c1ccccc1S2", "note": "(stereo not shown) [TDZ, Thioridazine]", "values": [{"measurement": "IC50", "result": 3.63, "unit": "nM"}]}]}
